Experiments:
adult female rats = assay: Post-coital antifertility efficacy in adult female rats; format: in vivo, rat; settings: daily dose 10 mg/kg, oral, days 1-7 post-coitum
[1] = tested on: immature ovariectomized rats; assay: Estrogen antagonistic activity: inhibition in 17α-ethynylestradiol induced uterine weight gain in immature ovariectomized rats; format: in vivo, rat; settings: Rattus norvegicus, 72 h, 3 days, read-out: Percent inhibition in 17α-ethynylestradiol induced uterine weight gain; for inhibition in vivo at 10 mg/kg/day: daily dose 10 mg/kg with 0.02 mg/kg 17-alfa-ethynylestradiol

SMILES	% Efficacy (adult female rats)	inhibition in vivo at 10 mg/kg/day [1] [%]	inhibition in vivo at 1 mg/kg/day ([1]; daily dose 1 mg/kg with 0.02 mg/kg 17-alfa-ethynylestradiol) [%]
c1ccc2c(c1)SCCc1c-2n(CCCCCCN2CCCCC2)c2ccccc12 [Example number 18, 12-[6-(Piperidine-1-yl)hexyl]-6,7-dihydro-12H-benzothiepino [5,4-b]indole]	Inactive	19	–
CCCCN(C)CCCCCn1c2c(c3ccccc31)CCSc1ccccc1-2 [Example number 13, 12-[5-(N-butylmethylamino)pentyl]-6,7-dihydro-12H-benzothiepino [5,4-b]indole]	Inactive	37	12

From patent US20050282863A1, “Novel-N substituted dihydrobenzothiepino, dihydrobenzoxepino and tetrahydro benzocyclohepta indoles as selective estrogen receptor modulators” (Council of Scientific & Industrial Research, priority 2004, published 2005)
